Measured values as given in PubChem BioAssay (NCI).
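Step 1: Grow cells in 96-well plates. Step 2: Expose to compound for 48 hours at 5 concentrations. Step 3: Interpolate endpoints linearly; if unreached, use highest concentration. GI50 is the concentration that inhibits growth by half. At the TGI there is no net growth.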 Where a SMILES comes first, the peptide text is derived from it.

What was measured:
Assay in all cases: NCI tumour cell line growth inhibition, 48 h
DLD-1 colon = tested on: DLD-1 colon
HOP-18 NSCLC = tested on: HOP-18 NSCLC
KM20L2 colon = tested on: KM20L2 colon
P388 leukemia = tested on: P388 leukemia
P388/ADR leukemia = tested on: P388/ADR leukemia
SN12K1 renal = tested on: SN12K1 renal
SNB-78 CNS = tested on: SNB-78 CNS
XF 498 CNS = tested on: XF 498 CNS
LXFL 529 NSCLC = tested on: LXFL 529 NSCLC
RXF-631 renal = tested on: RXF-631 renal

SMILES	TGI (DLD-1 colon)	TGI (HOP-18 NSCLC)	TGI (KM20L2 colon)	TGI (P388 leukemia)	TGI (P388/ADR leukemia)	TGI (SN12K1 renal)	TGI (SNB-78 CNS)	TGI (XF 498 CNS)	TGI (LXFL 529 NSCLC)	GI50 (SNB-78 CNS)	TGI (RXF-631 renal)
C=C1C(=O)O[C@@H]2[C@H]3O[C@]3(C)CCC=C(C)CC[C@@H]12	28.4 µM	28.3 µM	62.2 µM	175 µM	27.9 µM	37.9 µM	62 µM	32.4 µM	–	–	–
CN(C)c1nc(N(C)C)nc(N(C)C)n1	> 150 µM	87.3 µM	> 150 µM	> 150 µM	> 136 µM	> 150 µM	> 150 µM	> 116 µM	> 150 µM	–	–
CC1NC(=O)CNC(=O)CNC(=O)C(Cc2ccc(O)cc2)NC(=O)C(C(C)C)NC(=O)C(C)NC1=O (stereo not given) (cyclo(GGAAVY); configuration not given here)	> 100 µM	> 100 µM	–	> 100 µM	> 100 µM	> 100 µM	> 100 µM	> 100 µM	–	> 100 µM	–
CCCCCC(CN1CCOCC1)C(=O)/C=C/c1ccccc1 (stereo not given)	–	–	10.9 µM	–	–	–	–	3.29 µM	–	–	–
CC1=C2C(O)C(C(C)C(=O)NCC(C)C)CCC2(C)C=CC1=O (stereo not given)	> 100 µM	> 100 µM	> 100 µM	> 100 µM	> 100 µM	> 100 µM	> 100 µM	> 100 µM	–	–	–
NC(N)=NCCCC(N=c1c2ccccc2n(O)c2ccccc12)C(=O)O (stereo not given)	> 100 µM	> 100 µM	> 100 µM	–	–	–	–	–	> 100 µM	–	> 100 µM
